This passage reports Ki, Emax and EC50 results from patent US20120077957A1, “Lactam-Bridged Melanocortin Receptor-Specific Peptides” (PALATIN TECHNOLOGIES, INC., priority 2009, published 2012).

The target of assay [1] is T1, human MC4-R (Homo sapiens, UniProt P32245).
T1 construct: expressed in transfected cells; host or cells: HEK293 T-REx (tetracycline-regulated, Invitrogen); cell line from Palatin Technologies with license from the University of Michigan
In words: Competitive inhibition binding assay with [I125]-NDP-α-MSH or Eu-NDP-α-MSH, membranes of HEK-293 cells expressing recombinant hMC4-R. Conditions: human MC4-R; averages of all comparable assays; read-out: Ki. The method, then:
A competitive inhibition binding assay was performed using membrane homogenates prepared from HEK-293 cells that express recombinant hMC4-R, hMC3-R, or hMC5-R, and from B-16 mouse melanoma cells (containing endogenous MC1-R). In some instances, HEK-293 cells that express recombinant hMC1-R were employed. In the examples that follow, all MC3-R, MC4-R and MC5-R values are for human recombinant receptors. […] After incubation for 60 minutes at 37° C., the assay mixture was filtered and the membranes washed three times with ice-cold buffer. Filters were dried and counted in a gamma counter for bound radioactivity. […] Maximal specific binding (100%) was defined as the difference in radioactivity (cpm) bound to cell membranes in the absence and presence of 1 μM NDP-α-MSH. […] Ki values for test peptides of the present invention were determined using Graph-Pad Prism® curve-fitting software.
Alternatively, a competitive inhibition binding assay was performed employing Eu-NDP-α-MSH (PerkinElmer Life Sciences catalog No. AD0225) with determination by time-resolved fluorometry (TRF) of the lanthanide chelate. […] After incubation for 90 minutes at 37° C., the reaction was stopped by filtration over AcroWell 96-well filter plates (Pall Life Sciences). The filter plates were washed 4 times with 200 μL of ice-cold phosphate-buffered saline. DELFIA Enhancement solution (PerkinElmer Life Sciences) was added to each well. […] Each assay was conducted in duplicate and mean values were utilized. Ki values were determined by curve-fitting with Graph-Pad Prism® software using a one-site fixed-slope competition binding model.

For assay [2], the target named is T1, human MC4-R. In words: cAMP functional assay in HEK-293 T-REx cells expressing human MC4-R, induced with doxycycline 0.1 ng/mL (low density). The assay is classed as cell-based. Conditions: doxycycline 0.1 ng/mL, averages of all comparable assays; for Emax: HEK293-T-REx, maximal cAMP stimulation, NDP-α-MSH = 100%, read-out: Emax; for EC50: human MC4-R cAMP assay, read-out: Ec50. From the text:
A HEK293 cell line transfected with human MC4-R (from Palatin Technologies, US, with license from the University of Michigan) was used. The human MC4-R was introduced to HEK293 by using the T-REx™ System, Invitrogen. The T-REx™ System employs a tetracycline-regulated mammalian expression system that uses regulatory elements from the E. coli Tn10-encoded tetracycline (Tet) resistance operon. By use of the T-REx™ System, expression of the gene of interest, the human MC4-R gene, is repressed in the absence of tetracycline or doxycycline and induced in the presence of tetracycline or doxycycline (see T-REx™ System Manual, published by Invitrogen).
Cells were then counted and volume was adjusted to 5×10^4 cells per 200 μL.
The cells were then dispensed into 96-well plates (BD 353916) in 198 μL (about 5×10^4) cells/well and incubated for 10 minutes at 37° C. The compound to be tested was diluted with DMSO to a final concentration of 1 mM. Serial dilution was prepared in polypropylene removable 12-well library tube strips (VWR cat #83009-682). 120 μL of the 1 mM compound stock was pipetted in the second column on the plate.
2 μL of the standard, [Nle^4, D-Phe^7]alpha-Melanocyte Stimulating Hormone (NDP-α-MSH), or compound was added to the 96-well plate using the Janus robotic system. All assay samples were run in duplicate (i.e. each sample was in two low dox and two high dox plates, respectively). The plates were gently shaken and incubated for 15 minutes at 37° C. The reaction was stopped by adding 15 μL of lysis buffer per well and the plates were shakened for 30 minutes at room temperature.
Agonist stimulation of the MC4-R activates adenylate cyclase, which is an enzyme that catalyses the formation 3′,5′-cyclic adenosine monophosphate (cAMP) from adenosine triphosphate (ATP). […] Fluoresence ratios were then calculated as described in the CisBio HTRF kit, with GraphPad Prism software used to plot the change in fluorescence percent values versus cAMP concentration using the variable slope dose response curve and, based on calculated cAMP concentrations, to determine EC50 and Emax values. […]
On the technique in general: Changes in cAMP serve as a functional read-out for many G protein-coupled receptors.

SMILES strings stand for the structures. Bridge positions count the residues as written; N and C are the ends. Square brackets hold non-standard residues; d marks the D form. Peptide text beside a SMILES is read from it. Orn = NCCC[C@H](N)C(=O)O

T1 sequence (P32245 whole entry): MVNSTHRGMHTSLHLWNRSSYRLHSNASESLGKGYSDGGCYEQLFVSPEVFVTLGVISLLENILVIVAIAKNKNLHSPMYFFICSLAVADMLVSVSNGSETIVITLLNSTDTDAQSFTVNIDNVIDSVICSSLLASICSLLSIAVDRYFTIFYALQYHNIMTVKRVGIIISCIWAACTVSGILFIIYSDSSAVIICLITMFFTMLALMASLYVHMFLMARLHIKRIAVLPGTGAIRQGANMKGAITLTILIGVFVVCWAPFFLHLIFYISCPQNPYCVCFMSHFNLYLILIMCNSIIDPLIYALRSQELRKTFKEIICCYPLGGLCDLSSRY

Take `CCCC[C@H](NC(C)=O)C(=O)N[C@H]1CCC(=O)NCCC[C@@H](C(N)=O)NC(=O)[C@H](Cc2c[nH]c3ccccc23)NC(=O)[C@H](CCCNC(=N)N)NC(=O)[C@@H](Cc2ccccc2)NC(=O)[C@H](Cc2c[nH]cn2)NC1=O` [No. 2, Ac-Nle-cyclo(Glu-His-D-Phe-Arg-Trp-Orn)-NH2]: the Ki at human MC4-R [1] came to 0.1 nM. At human MC4-R [2], the maximal response (Emax) amounted to 93% and the EC50 is 0.1 nM.

For `CC(=O)N[C@@H](CCCNC(=N)N)C(=O)N[C@H]1CCC(=O)NCCC[C@@H](C(N)=O)NC(=O)[C@H](Cc2c[nH]c3ccccc23)NC(=O)[C@H](CCCNC(=N)N)NC(=O)[C@@H](Cc2ccccc2)NC(=O)[C@H](Cc2c[nH]cn2)NC1=O` [No. 4, Ac-Arg-cyclo(Glu-His-D-Phe-Arg-Trp-Orn)-NH2] (Ac-REH[dF]RW[Orn]-NH2; lactam 2-7), on human MC4-R [1], the Ki is 1 nM. Also, at human MC4-R [2], the Emax is 83% and the EC50 amounted to 0.2 nM.

Take `CC(=O)N[C@@H](CCCNC(=N)N)C(=O)N[C@H]1CCC(=O)NCCC[C@@H](C(N)=O)NC(=O)[C@H](Cc2c[nH]c3ccccc23)NC(=O)[C@H](CCCNC(=N)N)NC(=O)[C@@H](Cc2ccccc2)NC(=O)[C@H](CCN)NC1=O` [No. 6, Ac-Arg-cyclo(Glu-Dab-D-Phe-Arg-Trp-Orn)-NH2]: the Ki at human MC4-R [1] was 4 nM. In addition, on human MC4-R [2], the Emax was 94% and the concentration giving a half-maximal response (EC50) was 0.3 nM.

As to `CC(=O)N[C@@H](CCCNC(=N)N)C(=O)N[C@H]1CCC(=O)NCCC[C@@H](C(N)=O)NC(=O)[C@H](Cc2c[nH]c3ccccc23)NC(=O)[C@H](CCCNC(=N)N)NC(=O)[C@@H](Cc2ccccc2)NC(=O)[C@H](CCCN)NC1=O` [No. 8, Ac-Arg-cyclo(GIu-Orn-D-Phe-Arg-Trp-Orn)-NH2], the Ki at human MC4-R [1] was determined as 9 nM. For the same molecule, at human MC4-R [2], the maximal effect (Emax) was 95% and the EC50 was determined as 0.4 nM.

In the case of `CC(=O)N[C@@H](CCCNC(=N)N)C(=O)N[C@H]1CCC(=O)NCCC[C@@H](C(N)=O)NC(=O)[C@H](Cc2c[nH]c3ccccc23)NC(=O)[C@H](CCCNC(=N)N)NC(=O)[C@@H](Cc2ccccc2)NC(=O)[C@H](CCC(N)=O)NC1=O` [No. 12, Ac-Arg-cyclo(Glu-Gln-D-Phe-Arg-Trp-Orn)-NH2], the Ki on human MC4-R [1] is 3 nM. For the same molecule, on human MC4-R [2], the Emax was 96% and the EC50 amounted to 6 nM.

Turning to `CC(=O)N[C@@H](CCCNC(=N)N)C(=O)N[C@H]1CCC(=O)NCCC[C@@H](C(N)=O)NC(=O)[C@H](Cc2c[nH]c3ccccc23)NC(=O)[C@H](CCCNC(=N)N)NC(=O)[C@@H](Cc2ccccc2)NC(=O)[C@H](CCS(C)(=O)=O)NC1=O` [No. 13, Ac-Arg-cyclo(Glu-Met(O2)-D-Phe-Arg-Trp-Orn)-NH2], the Ki at human MC4-R [1] came out at 8 nM. On human MC4-R [2], the maximum response (Emax) stood at 71% and the 50% effective concentration (EC50) is 5 nM.

Consider `CC(=O)N[C@@H](CCCNC(=N)N)C(=O)N[C@H]1CCC(=O)NCCC[C@@H](C(=O)O)NC(=O)[C@H](Cc2c[nH]c3ccccc23)NC(=O)[C@H](CCCNC(=N)N)NC(=O)[C@@H](Cc2ccccc2)NC(=O)[C@H](COCc2ccccc2)NC1=O` [No. 17, Ac-Arg-cyclo(Glu-Ser(Bzl)-D-Phe-Arg-Trp-Orn)-OH], for which the inhibitory constant (Ki) on human MC4-R [1] came to 6 nM. In addition, on human MC4-R [2], the maximum response (Emax) was 55% and the half-maximal effective concentration (EC50) was found to be 2 nM.

Turning to `CC(=O)N[C@@H](CCCNC(=N)N)C(=O)N[C@H]1CCC(=O)NCCC[C@@H](C(N)=O)NC(=O)[C@H](Cc2c[nH]c3ccccc23)NC(=O)[C@H](CCCNC(=N)N)NC(=O)[C@@H](Cc2ccccc2)NC(=O)[C@@H]2C[C@@H](N)CN2C1=O` [No. 32, Ac-Arg-cyclo(Glu-Pro(4R-NH2)-D-Phe-Arg-Trp-Orn)-NH2], the inhibitory constant (Ki) on human MC4-R [1] came out at 6 nM. Moreover, at human MC4-R [2], the Emax was 55% and the EC50 amounted to 8 nM.

For the molecule `CC(=O)N[C@@H](CCCNC(=N)N)C(=O)N[C@H]1CC(=O)NCCCC[C@@H](C(=O)O)NC(=O)[C@H](Cc2c[nH]c3ccccc23)NC(=O)[C@H](CCCNC(=N)N)NC(=O)[C@@H](Cc2ccccc2)NC(=O)[C@H](Cc2c[nH]cn2)NC1=O` [reference compound], at human MC4-R [2], the Emax came to 91% and the 50% effective concentration (EC50) was 4 nM.

As for `CC(=O)N[C@@H](CCCNC(=N)N)C(=O)N[C@H]1CC(=O)NCCCC[C@@H](C(N)=O)NC(=O)[C@H](Cc2c[nH]c3ccccc23)NC(=O)[C@H](CCCNC(=N)N)NC(=O)[C@@H](Cc2ccccc2)NC(=O)[C@H](Cc2c[nH]cn2)NC1=O` [reference compound], the Emax at human MC4-R [2] was 83%.

For `CC(=O)N[C@@H](CCCNC(=N)N)C(=O)N[C@H]1CC(=O)NCCCC[C@@H](C(=O)O)NC(=O)[C@H](Cc2c[nH]c3ccccc23)NC(=O)[C@H](CCCNC(=N)N)NC(=O)[C@@H](Cc2ccccc2)NC(=O)[C@H](CCN)NC1=O` [reference compound], the maximal effect (Emax) at human MC4-R [2] amounted to 91%.

Regarding `CC(=O)N[C@@H](CCCNC(=N)N)C(=O)N[C@H]1CC(=O)NCCCC[C@@H](C(N)=O)NC(=O)[C@H](Cc2c[nH]c3ccccc23)NC(=O)[C@H](CCCNC(=N)N)NC(=O)[C@@H](Cc2ccccc2)NC(=O)[C@@H]2C[C@@H](O)CN2C1=O` [reference compound], the Emax at human MC4-R [2] turned out to be 39%.

Regarding `CC(=O)N[C@@H](CCCNC(=N)N)C(=O)N[C@H]1CC(=O)NCCCC[C@@H](C(N)=O)NC(=O)[C@H](Cc2c[nH]c3ccccc23)NC(=O)[C@H](CCCNC(=N)N)NC(=O)[C@@H](Cc2ccccc2)NC(=O)[C@H](CCCNC(N)=O)NC1=O` [reference compound], the maximal effect (Emax) on human MC4-R [2] was found to be 69%.

Regarding `CC(=O)N[C@@H](CCCNC(=N)N)C(=O)N[C@H]1CC(=O)NCCCC[C@@H](C(=O)NC2CC2)NC(=O)[C@H](Cc2c[nH]c3ccccc23)NC(=O)[C@H](CCCNC(=N)N)NC(=O)[C@@H](Cc2ccccc2)NC(=O)[C@H](CCC(N)=O)NC1=O` [reference compound], at human MC4-R [2], the Emax came to 79% and the concentration giving a half-maximal response (EC50) was found to be 9 nM.

Regarding `CC(=O)N[C@H](CCCNC(=N)N)C(=O)N[C@H]1CC(=O)NCCCC[C@@H](C(N)=O)NC(=O)[C@H](Cc2c[nH]c3ccccc23)NC(=O)[C@H](CCCNC(=N)N)NC(=O)[C@@H](Cc2ccccc2)NC(=O)[C@H](Cc2c[nH]cn2)NC1=O` [reference compound], the maximal response (Emax) on human MC4-R [2] turned out to be 89%.

As to `CC(=O)N[C@@H](CCCNC(=N)N)C(=O)N[C@H]1CC(=O)NCCCC[C@@H](C(N)=O)NC(=O)[C@H](Cc2c[nH]c3ccccc23)NC(=O)[C@H](CCCNC(=N)N)NC(=O)[C@@H](Cc2ccccc2)NC(=O)[C@@H]2CCCN2C1=O` [reference compound], at human MC4-R [2], the maximal effect (Emax) stood at 43%.

In the case of `CC(=O)N[C@H]1CC(=O)NCCCC[C@@H](C(N)=O)NC(=O)[C@H](Cc2c[nH]c3ccccc23)NC(=O)[C@H](CCCNC(=N)N)NC(=O)[C@@H](Cc2ccccc2)NC(=O)[C@H](CCC(N)=O)NC1=O` [reference compound] (Ac-DQ[dF]RWK-NH2; lactam 1-6), the Emax on human MC4-R [2] was found to be 35%.

With `CC(=O)N[C@@H](CCCNC(=N)N)C(=O)N[C@H]1CC(=O)NCCCC[C@@H](C(N)=O)NC(=O)[C@H](Cc2c[nH]c3ccccc23)NC(=O)[C@H](CCCNC(=N)N)NC(=O)[C@@H](Cc2ccccc2)NC(=O)[C@H](CCCCN)NC1=O` [reference compound] (Ac-RDK[dF]RWK-NH2; lactam 2-7), at human MC4-R [2], the maximum response (Emax) amounted to 97% and the concentration for a half-maximal effect (EC50) is 8 nM.

With `CC(=O)N[C@@H](CCCNC(=N)N)C(=O)N[C@H]1CC(=O)NCCCC[C@@H](C(=O)O)NC(=O)[C@H](Cc2c[nH]c3ccccc23)NC(=O)[C@H](CCCNC(=N)N)NC(=O)[C@@H](Cc2ccccc2)NC(=O)[C@H](CC(N)=O)NC1=O` [reference compound] (Ac-RDN[dF]RWK-OH; lactam 2-7), the Emax at human MC4-R [2] amounted to 73%.

What is called Ki is a measure of affinity in units of concentration, obtained from inhibition or displacement. For orientation: Emax means the size of the effect at its maximum, as opposed to the concentration needed. The term EC50 denotes the midpoint of the concentration-response curve.
